Assay results reported in PubChem BioAssay (NCI).
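1) Cells in 96-well plates. 2) Compound, 48 h, 5 concentrations. 3) Linear interpolation between surrounding doses. 4) Unreached endpoint = highest concentration. TGI denotes the concentration required for complete inhibition of growth.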

Legend:
Assay in all cases: NCI anticancer screen, dose series, 48 h
NCI-H460 lung = system: NCI-H460 lung
U251 CNS = system: U251 CNS
HCT-15 colon = system: HCT-15 colon
PC-3 prostate = system: PC-3 prostate
OVCAR-3 ovarian = system: OVCAR-3 ovarian
NCI-H226 lung = system: NCI-H226 lung
HCC-2998 colon = system: HCC-2998 colon
DU-145 prostate = system: DU-145 prostate
RXF 393 renal = system: RXF 393 renal
SK-OV-3 ovarian = system: SK-OV-3 ovarian

## CC(=C(C(N)=O)C(N)=O)C1C=C(c2cccs2)CC(c2ccc(Cl)cc2)=C1O (stereo not given)
NCI-H460 lung
  TGI: > 100 µM
U251 CNS
  TGI: > 100 µM
HCT-15 colon
  TGI: > 100 µM
PC-3 prostate
  TGI: > 100 µM
OVCAR-3 ovarian
  TGI: > 100 µM
NCI-H226 lung
  TGI: > 100 µM
HCC-2998 colon
  TGI: > 100 µM
DU-145 prostate
  TGI: > 100 µM
RXF 393 renal
  TGI: > 100 µM
SK-OV-3 ovarian
  TGI: > 100 µM

## Cc1noc2nnn(-c3ccc(Cl)cc3)c(=O)c12
NCI-H460 lung
  TGI: 21.3 µM
U251 CNS
  TGI: 17.7 µM
HCT-15 colon
  TGI: 10.3 µM
PC-3 prostate
  TGI: 19.2 µM
OVCAR-3 ovarian
  TGI: 6.83 µM
NCI-H226 lung
  TGI: 9.83 µM
HCC-2998 colon
  TGI: 9.7 µM
DU-145 prostate
  TGI: 14.3 µM
RXF 393 renal
  TGI: 4.79 µM
SK-OV-3 ovarian
  TGI: 26.5 µM

## COc1ccc2sc(-n3nc4ccccc4c3Nc3nc4ccc(OC)cc4s3)nc2c1
NCI-H460 lung
  TGI: > 38.9 µM
U251 CNS
  TGI: 11 µM
HCT-15 colon
  TGI: > 72.1 µM
PC-3 prostate
  TGI: 17.4 µM
OVCAR-3 ovarian
  TGI: 7.45 µM
NCI-H226 lung
  TGI: 13.9 µM
HCC-2998 colon
  TGI: 5.47 µM
DU-145 prostate
  TGI: 17.9 µM
RXF 393 renal
  TGI: 43.3 µM
SK-OV-3 ovarian
  TGI: 7.47 µM

## O=C1/C(=C/c2ccccc2O)N=C(c2ccccc2)N1c1nc2ccccc2s1
NCI-H460 lung
  TGI: 56.4 µM
U251 CNS
  TGI: 28.7 µM
HCT-15 colon
  TGI: 44.9 µM
PC-3 prostate
  TGI: 43.8 µM
OVCAR-3 ovarian
  TGI: 54.3 µM
NCI-H226 lung
  TGI: 77.8 µM
HCC-2998 colon
  TGI: 35.4 µM
DU-145 prostate
  TGI: > 100 µM
RXF 393 renal
  TGI: > 100 µM
SK-OV-3 ovarian
  TGI: > 100 µM

## COc1ccc(/C=C2\N=C(c3ccccc3)N(N=C3NC(=O)CC(=O)N3)C2=O)cc1
NCI-H460 lung
  TGI: > 100 µM
U251 CNS
  TGI: > 100 µM
HCT-15 colon
  TGI: > 100 µM
PC-3 prostate
  TGI: > 100 µM
OVCAR-3 ovarian
  TGI: > 100 µM
NCI-H226 lung
  TGI: > 100 µM
HCC-2998 colon
  TGI: > 100 µM
DU-145 prostate
  TGI: > 100 µM
RXF 393 renal
  TGI: > 100 µM
SK-OV-3 ovarian
  TGI: > 100 µM

## CC1OC2(CC(OCc3ccccc3)C1OCc1ccccc1)OCCO2 (stereo not given)
NCI-H460 lung
  TGI: > 100 µM
U251 CNS
  TGI: > 100 µM
HCT-15 colon
  TGI: 90.5 µM
PC-3 prostate
  TGI: > 100 µM
OVCAR-3 ovarian
  TGI: > 100 µM
NCI-H226 lung
  TGI: > 100 µM
HCC-2998 colon
  TGI: > 100 µM
DU-145 prostate
  TGI: > 100 µM
RXF 393 renal
  TGI: 74.4 µM
SK-OV-3 ovarian
  TGI: > 100 µM

## Cc1ccc(-n2[nH]nc(C#N)c2=O)cc1
NCI-H460 lung
  TGI: > 100 µM
U251 CNS
  TGI: > 100 µM
HCT-15 colon
  TGI: > 100 µM
PC-3 prostate
  TGI: > 100 µM
OVCAR-3 ovarian
  TGI: > 100 µM
NCI-H226 lung
  TGI: > 100 µM
HCC-2998 colon
  TGI: > 100 µM
DU-145 prostate
  TGI: > 100 µM
RXF 393 renal
  TGI: > 100 µM
SK-OV-3 ovarian
  TGI: > 100 µM

## N=C(N)SCc1ccc(Cl)cc1Cl (tested in a mixture with another compound)
NCI-H460 lung
  TGI: 24.2 µM
U251 CNS
  TGI: 28.5 µM
HCT-15 colon
  TGI: 35.1 µM
PC-3 prostate
  TGI: 24.6 µM
OVCAR-3 ovarian
  TGI: 28.1 µM
NCI-H226 lung
  TGI: 40.9 µM
HCC-2998 colon
  TGI: 21.5 µM
DU-145 prostate
  TGI: 29.8 µM
RXF 393 renal
  TGI: 27.9 µM
SK-OV-3 ovarian
  TGI: 40.2 µM

## CCN1CCN(c2nc3ccc([N+](=O)[O-])cc3nc2C(=O)c2ccccc2)CC1
NCI-H460 lung
  TGI: 51.4 µM
U251 CNS
  TGI: 31.9 µM
HCT-15 colon
  TGI: 25 µM
PC-3 prostate
  TGI: 32.3 µM
OVCAR-3 ovarian
  TGI: 30.6 µM
NCI-H226 lung
  TGI: 33.3 µM
HCC-2998 colon
  TGI: 28.6 µM
DU-145 prostate
  TGI: 33.2 µM
RXF 393 renal
  TGI: 32.8 µM
SK-OV-3 ovarian
  TGI: 41.7 µM

## CSc1c(C#N)c(N)nc2c(N=Nc3ccc(Cl)cc3)c(N)nn12
NCI-H460 lung
  TGI: > 45.6 µM
U251 CNS
  TGI: 11 µM
HCT-15 colon
  TGI: 5.5 µM
PC-3 prostate
  TGI: 7.38 µM
OVCAR-3 ovarian
  TGI: 3.38 µM
NCI-H226 lung
  TGI: 37.9 µM
HCC-2998 colon
  TGI: 14.8 µM
DU-145 prostate
  TGI: 5.7 µM
RXF 393 renal
  TGI: 5.79 µM
SK-OV-3 ovarian
  TGI: 67.1 µM

## Cc1cc(Cc2c(F)c(F)c(C(c3cc(C)no3)c3c(F)c(F)c(F)c(F)c3F)c(F)c2F)on1 (stereo not given)
NCI-H460 lung
  TGI: > 100 µM
U251 CNS
  TGI: > 100 µM
HCT-15 colon
  TGI: > 100 µM
PC-3 prostate
  TGI: > 100 µM
OVCAR-3 ovarian
  TGI: > 100 µM
NCI-H226 lung
  TGI: > 100 µM
HCC-2998 colon
  TGI: > 100 µM
DU-145 prostate
  TGI: > 100 µM
RXF 393 renal
  TGI: 8.08 µM
SK-OV-3 ovarian
  TGI: > 100 µM

## c1csc(-c2cc(-c3cccs3)c(-c3cccs3)s2)c1
NCI-H460 lung
  TGI: > 100 µM
U251 CNS
  TGI: > 100 µM
HCT-15 colon
  TGI: > 100 µM
PC-3 prostate
  TGI: > 100 µM
OVCAR-3 ovarian
  TGI: > 100 µM
NCI-H226 lung
  TGI: > 100 µM
HCC-2998 colon
  TGI: > 100 µM
DU-145 prostate
  TGI: > 100 µM
RXF 393 renal
  TGI: > 100 µM
SK-OV-3 ovarian
  TGI: > 100 µM

## O=C1[C@@H]2[C@@H](c3ccccc3)[C@]2(Cl)C(=O)[C@H]2[C@H](c3ccccc3)[C@@]12Cl
NCI-H460 lung
  TGI: > 100 µM
U251 CNS
  TGI: > 100 µM
HCT-15 colon
  TGI: > 100 µM
PC-3 prostate
  TGI: > 100 µM
OVCAR-3 ovarian
  TGI: > 100 µM
NCI-H226 lung
  TGI: > 100 µM
HCC-2998 colon
  TGI: > 100 µM
DU-145 prostate
  TGI: > 100 µM
RXF 393 renal
  TGI: > 100 µM
SK-OV-3 ovarian
  TGI: > 100 µM

## O=c1oc2cc(O)ccc2c(O)c1C(c1cccnc1)c1c(O)c2ccc(O)cc2oc1=O
NCI-H460 lung
  TGI: > 100 µM
U251 CNS
  TGI: > 100 µM
HCT-15 colon
  TGI: > 100 µM
PC-3 prostate
  TGI: > 100 µM
OVCAR-3 ovarian
  TGI: > 100 µM
NCI-H226 lung
  TGI: > 100 µM
HCC-2998 colon
  TGI: > 100 µM
DU-145 prostate
  TGI: > 100 µM
RXF 393 renal
  TGI: > 100 µM
SK-OV-3 ovarian
  TGI: > 100 µM

## CCOC(=O)Cc1nc2sc(S(N)(=O)=O)nn2c1Br
NCI-H460 lung
  TGI: > 100 µM
U251 CNS
  TGI: 37.9 µM
HCT-15 colon
  TGI: 77.5 µM
PC-3 prostate
  TGI: 63.9 µM
OVCAR-3 ovarian
  TGI: 98.5 µM
NCI-H226 lung
  TGI: 73 µM
HCC-2998 colon
  TGI: 48.1 µM
DU-145 prostate
  TGI: > 100 µM
RXF 393 renal
  TGI: 69.8 µM
SK-OV-3 ovarian
  TGI: > 100 µM

## CCOC(=O)c1c(N2CCCC2)[nH]c(=O)c(C(c2ccco2)c2c(O)c(C(=O)OCC)c(N3CCCC3)[nH]c2=O)c1O
NCI-H460 lung
  TGI: > 100 µM
U251 CNS
  TGI: > 100 µM
HCT-15 colon
  TGI: > 100 µM
PC-3 prostate
  TGI: > 100 µM
OVCAR-3 ovarian
  TGI: > 100 µM
NCI-H226 lung
  TGI: > 100 µM
HCC-2998 colon
  TGI: > 100 µM
DU-145 prostate
  TGI: > 100 µM
RXF 393 renal
  TGI: > 100 µM
SK-OV-3 ovarian
  TGI: > 100 µM

## Cc1cc(C)nc(SC(C)C(=O)N/N=C/c2ccc(OCc3ccccc3)cc2)n1 (stereo not given)
NCI-H460 lung
  TGI: > 100 µM
U251 CNS
  TGI: > 100 µM
HCT-15 colon
  TGI: > 100 µM
PC-3 prostate
  TGI: 58.7 µM
OVCAR-3 ovarian
  TGI: > 100 µM
NCI-H226 lung
  TGI: 93.5 µM
HCC-2998 colon
  TGI: > 100 µM
DU-145 prostate
  TGI: > 100 µM
RXF 393 renal
  TGI: 66.6 µM
SK-OV-3 ovarian
  TGI: > 100 µM
